From ChEMBL document CHEMBL3813651, “Structure-activity relationships of dibenzoylhydrazines for the inhibition of P-glycoprotein-mediated quinidine transport” (Bioorg Med Chem, 2016) come the findings set out here.

Broadly, the inhibition is the relative decrease from the control value, in per cent. By logP is commonly meant a log measure of how a compound divides between an organic and an aqueous phase. Broadly, the IC50 is the concentration that inhibits the measured activity by half.

In series [1] the target is ATP-dependent translocase ABCB1 (Homo sapiens, UniProt P08183). Put plainly: Inhibition of human P-glycoprotein transfected in pig LLC-GA5-COL150 cells assessed as quinidine transport from apical to basolateral side preincubated for 30 mins followed by quinidine addition to apical side measured after 60 mins. The note with it: for log(activity): human, llc-ga5-col150, 1 h. The format is cell-based. Also on record: log(activity): scale not given here.
ATP-dependent translocase ABCB1, sequence (P08183 whole entry): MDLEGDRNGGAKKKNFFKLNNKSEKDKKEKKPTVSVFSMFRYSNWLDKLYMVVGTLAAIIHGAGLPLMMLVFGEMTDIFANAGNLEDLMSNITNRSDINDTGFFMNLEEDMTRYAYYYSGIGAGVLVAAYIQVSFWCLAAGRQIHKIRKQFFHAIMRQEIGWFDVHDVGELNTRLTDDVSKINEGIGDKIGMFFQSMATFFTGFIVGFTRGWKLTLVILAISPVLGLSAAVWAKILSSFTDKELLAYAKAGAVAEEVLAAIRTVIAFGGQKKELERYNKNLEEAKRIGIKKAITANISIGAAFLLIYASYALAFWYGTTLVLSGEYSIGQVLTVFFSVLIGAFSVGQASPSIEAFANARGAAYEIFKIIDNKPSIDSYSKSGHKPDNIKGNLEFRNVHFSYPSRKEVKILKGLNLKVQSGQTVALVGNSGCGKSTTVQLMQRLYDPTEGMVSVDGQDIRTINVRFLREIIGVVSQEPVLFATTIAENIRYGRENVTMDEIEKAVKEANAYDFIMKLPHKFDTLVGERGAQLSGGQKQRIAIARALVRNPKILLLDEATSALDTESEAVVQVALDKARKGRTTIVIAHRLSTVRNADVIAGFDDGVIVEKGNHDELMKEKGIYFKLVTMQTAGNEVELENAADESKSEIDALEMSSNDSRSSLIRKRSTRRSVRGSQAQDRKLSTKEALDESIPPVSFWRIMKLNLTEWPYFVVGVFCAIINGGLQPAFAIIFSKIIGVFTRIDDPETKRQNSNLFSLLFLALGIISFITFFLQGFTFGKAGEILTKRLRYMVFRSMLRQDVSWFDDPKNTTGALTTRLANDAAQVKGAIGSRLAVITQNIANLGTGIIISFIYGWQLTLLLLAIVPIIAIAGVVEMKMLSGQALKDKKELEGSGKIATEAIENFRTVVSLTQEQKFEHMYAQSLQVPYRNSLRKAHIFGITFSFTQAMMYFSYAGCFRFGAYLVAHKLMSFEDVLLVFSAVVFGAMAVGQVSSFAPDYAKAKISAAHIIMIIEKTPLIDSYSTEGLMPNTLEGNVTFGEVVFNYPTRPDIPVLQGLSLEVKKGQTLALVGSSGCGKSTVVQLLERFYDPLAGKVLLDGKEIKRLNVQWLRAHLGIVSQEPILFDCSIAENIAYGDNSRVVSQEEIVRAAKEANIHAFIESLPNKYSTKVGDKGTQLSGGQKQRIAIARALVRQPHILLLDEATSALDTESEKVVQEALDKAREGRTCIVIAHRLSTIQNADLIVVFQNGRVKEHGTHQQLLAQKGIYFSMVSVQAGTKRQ

For series [2], the target named is T1, P-glycoprotein (ABCB1) (Homo sapiens, UniProt P08183). Put plainly: Inhibition of human P-glycoprotein transfected in pig LLC-GA5-COL150 cells assessed as quinidine transport from apical to basolateral side at 30 uM preincubated for 30 mins followed by quinidine addition to apical side measured after 60 mins. The format is cell-based. Particulars: LLC-PK1, probe quinidine.
T1 sequence (P08183 whole entry): as above

Series [3] is described as follows: Lipophilicity , logP of the compound. It counts as physicochemical. The note with it: octanol/water.
For series [4], the target named is T1, P-glycoprotein (ABCB1). The series can be described thus: Inhibition of human P-glycoprotein transfected in pig LLC-GA5-COL150 cells assessed as quinidine transport from apical to basolateral side at 2 uM preincubated for 30 mins followed by quinidine addition to apical side measured after 60 mins. Particulars: LLC-PK1, probe quinidine.

With `CC(C)(C)N(NC(=O)c1c(F)cccc1F)C(=O)c1ccccc1Cl`, in series [1], the “log(activity)” value is listed as -1.36. The inhibition at 1 h, 30 µM on P-glycoprotein (ABCB1) [2] is 4.2%. In series [3], this compound yielded a logP of 2.35.
The like results for `Cc1ccc(C(=O)NN(C(=O)c2ccccc2Cl)C(C)(C)C)cc1C` were, in that order, -0.58, 20.8% and 3.65.
On the same counts, the results for `CC(C)(C)N(NC(=O)c1c(F)cccc1Cl)C(=O)c1ccccc1Cl` are -1.13, 6.9% and 2.67.
For the compound `CC(C)(C)N(NC(=O)c1cc(Cl)ccc1Cl)C(=O)c1ccccc1Cl`, in series [1], the IC50 was 46.7 µM and the “log(activity)” value was -0.1. Besides, the inhibition at 1 h, 30 µM at P-glycoprotein (ABCB1) [2] turned out to be 44.2%. Besides, the logP in series [3] is 3.75.
Take `CC(C)(C)N(NC(=O)c1c(Cl)cccc1Cl)C(=O)c1ccccc1Cl`: in series [1], the “log(activity)” value is recorded as -1.21. At P-glycoprotein (ABCB1) [2], the inhibition at 1 h, 30 µM was 5.8%. Besides, in series [3], the logP stood at 3.03.
On the same counts, the results for `Cc1cc(C)cc(C(=O)NN(C(=O)c2ccccc2Cl)C(C)(C)C)c1` are -0.54, 22.4% and 3.67.
Take `COc1cc2c(cc1OC)CN(CCc1ccc(NC(=O)c3cccc4c(=O)c5cccc(OC)c5[nH]c34)cc1)CC2`: the inhibition at 1 h, 2 µM at P-glycoprotein (ABCB1) [4] turned out to be 100%.
